Test results reported in PMC10473160 (Cancer Research Communications, 2023).

Legend:
NCI-H1703 cells [1] = assay: Cell Titer Glo cellular cytotoxicity assay, NCI-H1703; format: cell-based; conditions: Homo sapiens, NCI-H1703, 144 h; H1703, 6 days, representative experiment, unit not readable in the picture; read-out: IC50 (Fig. 3B)
Description: (§1) Cells were seeded in 384-well plates at a density of 300–500 cells per well (depending upon the doubling time for each cell line) with 40 μL of media per well using a multidrop combi cell dispenser (Thermo Fisher Scientific). The cells were incubated at room temperature for 30 minutes to minimize edge effects. The next day, the cells were treated with drugs of interest at various concentrations using a D300e digital dispenser (Tecan). Following treatment, the cells were cultured at 37°C for 6 days. On day 6 after treatment initiation, the plates and Cell Titer Glo (CTG; Promega; PRG9243) were incubated at room temperature (protected from light) for 1 hour to reach equilibrium. After incubation, half of the CTG volume was added to one volume of cell culture medium in each well. The plates were then shaken for 30 seconds to induce cell lysis. The cells were then incubated at room temperature for 12 minutes protected from light to stabilize the luminescence signal. The luminescent cell viability was measured using an EnVision plate reader (PerkinElmer). For cell viability, the data were analyzed using Excel (Microsoft) and GraphPad Prism (RRID:SCR_002798; Dotmatics). […] For synergy, the data were analyzed using Excel, SynergyFinder ([28]), and Combenefit ([29]). […]

NCI-H1703 cells [2] = assay: High-content imaging assay (γH2AX, phospho-histone H3, cleaved caspase 3); format: cell-based, human; conditions: single-agent treatment, 72 hours
Description: Cells were seeded in 96-well plates at a density of 10,000 cells per well with 100 μL of media per well. The cells were cultured overnight. The next day, the cells were treated with doxorubicin (0.006 μmol/L), ZL-2201 (0.1, 0.3, 0.5, 1, and 3.6 μmol/L), and a combination of doxorubicin and ZL-2201 for the indicated times. The cells were washed in PBS and fixed by adding Cytofix/Perm buffer (BD; 554714) at room temperature for 20 minutes. Cells were washed with Perm wash buffer and blocked with Perm wash buffer and 3% FBS at room temperature for 1 hour. The cells were then incubated with primary antibodies against γH2AX-Ser139 (RRID:AB_309864; Millipore; 05-636), pPH3 (Ser10; 6G3; RRID:AB_331748; Cell Signaling Technology; 9706) and cleaved caspase 3 (Asp175; 5A1E; RRID:AB_2070042; Cell Signaling Technology; 9664) overnight at 4°C. Cells were washed the following day and incubated with secondary antibodies (Alexa Fluor 488; Invitrogen; A32723 or A32731 and Alexa Fluor 647; A32733) at room temperature for 45 minutes in the dark. The cells were washed and stained with Hoescht (Thermo Fisher Scientific; H3570) at room temperature for 15 minutes in the dark. Images were obtained and quantified using the ImageXpress Micro Confocal High-Content Imaging System (Molecular Devices). A total of 16 fields were obtained per image for each timepoint and treatment groups.

NCI-H1703 cells [3] = conditions: NCI-H1703, Bliss, 6 days of combination treatment
Description: as §1

A549 cells = assay: CTG combination synergy (Bliss) with ZL-2201, A549; format: cell-based, human; conditions: 6 days of combination treatment
Description: Cells were seeded in 384-well plates at a density of 300–500 cells per well (depending upon the doubling time for each cell line) with 40 μL of media per well using a multidrop combi cell dispenser (Thermo Fisher Scientific). The cells were incubated at room temperature for 30 minutes to minimize edge effects. The next day, the cells were treated with drugs of interest at various concentrations using a D300e digital dispenser (Tecan). Following treatment, the cells were cultured at 37°C for 6 days. On day 6 after treatment initiation, the plates and Cell Titer Glo (CTG; Promega; PRG9243) were incubated at room temperature (protected from light) for 1 hour to reach equilibrium. After incubation, half of the CTG volume was added to one volume of cell culture medium in each well. The plates were then shaken for 30 seconds to induce cell lysis. […] The luminescent cell viability was measured using an EnVision plate reader (PerkinElmer). For cell viability, the data were analyzed using Excel (Microsoft) and GraphPad Prism (RRID:SCR_002798; Dotmatics). The data were first transformed to a log scale on the X-axis, then transformed values were normalized, and finally, normalized values were fitted using a nonlinear regression curve fit. For synergy, the data were analyzed using Excel, SynergyFinder ([28]), and Combenefit ([29]). […]

SMILES: COc1cccc2c1C(=O)c1c(O)c3c(c(O)c1C2=O)C[C@@](O)(C(=O)CO)C[C@@H]3O[C@H]1C[C@H](N)[C@H](O)[C@H](C)O1 [doxorubicin]
- IC50 (NCI-H1703 cells [1]): 4 nM
- cleaved caspase 3 (apoptosis) level (NCI-H1703 cells [2]): did not alter
- phospho-histone H3 (mitotic index) level (NCI-H1703 cells [2]): did not alter
- synergy score in combination with ZL-2201 (NCI-H1703 cells [3]): > 30
- synergy score in combination with ZL-2201 (A549 cells): > 30
